Like-named read-outs stand apart in the source and are kept apart here.
How the values were obtained:
22Rv1 cells = test: Cell growth inhibition assay (CellTiter-Glo) in 22Rv1; assay type: cell-based, human; conditions: 22Rv1 cells, 96 h incubation, read-out: Cell Growth Inhibition (IC50) 22Rv1
Procedure: Biological Assays. CBP/p300 degradation activity and cell growth inhibition were evaluated in the human prostate cancer cell line 22Rv1 (ATCC© CRL-2505™) purchased from the American Type Culture Collection (ATCC), Manassas, VA, and maintained and cultured in Dulbecco's Modified Eagle's medium (DMEM) containing 10% fetal bovine serum, 1 unit/ml of penicillin and 1 μg/ml of streptomycin. Cells with 3-8 passages after purchase were used in experiments.
Cell Growth Inhibition Assay Protocol. 22RV1 cells were seeded at a concentration of 4000 cells/well in 100 μl culture medium and 2 μl of test compound (final concentration start from 10 μM and 3 times dilution) into 96 well microplates (Corning 3903). The cell cultures were incubated for 96 h at +37° C. and 5% CO2. The plate and its contents were equilibrated to room temperature for approximately 30 minutes. 100 μl of CellTiter-Glo® 2.0 Reagent equal to the volume of cell culture medium present was added in each well. The contents were mixed for 2 minutes on an orbital shaker. The plate was allowed to incubate at room temperature for 10 minutes. The luminescence was recorded. The data was analyzed by Prism GraphPad 8.

CBP = molecular target: T1, CBP (Homo sapiens, UniProt Q92793); test: CBP degradation in 22Rv1 cells (5 h); assay type: cell-based; conditions: 22Rv1 cells, 5 h; for Dmax: 22Rv1, 5 h, read-out: CBP Degradation (22Rv1, 5 h) DCmax
T1 construct: endogenous in cells; host or cells: 22Rv1 (ATCC CRL-2505) human prostate cancer cells
Text: Biological Assays. […] Cells with 3-8 passages after purchase were used in experiments.

HL60 = test: Cell growth inhibition in HL60; assay type: cell-based; conditions: read-out: Cell Growth Inhibition (IC50) HL60
[1] = Homo sapiens, HL-60, HL60 cells

T1 sequence (Q92793 whole entry): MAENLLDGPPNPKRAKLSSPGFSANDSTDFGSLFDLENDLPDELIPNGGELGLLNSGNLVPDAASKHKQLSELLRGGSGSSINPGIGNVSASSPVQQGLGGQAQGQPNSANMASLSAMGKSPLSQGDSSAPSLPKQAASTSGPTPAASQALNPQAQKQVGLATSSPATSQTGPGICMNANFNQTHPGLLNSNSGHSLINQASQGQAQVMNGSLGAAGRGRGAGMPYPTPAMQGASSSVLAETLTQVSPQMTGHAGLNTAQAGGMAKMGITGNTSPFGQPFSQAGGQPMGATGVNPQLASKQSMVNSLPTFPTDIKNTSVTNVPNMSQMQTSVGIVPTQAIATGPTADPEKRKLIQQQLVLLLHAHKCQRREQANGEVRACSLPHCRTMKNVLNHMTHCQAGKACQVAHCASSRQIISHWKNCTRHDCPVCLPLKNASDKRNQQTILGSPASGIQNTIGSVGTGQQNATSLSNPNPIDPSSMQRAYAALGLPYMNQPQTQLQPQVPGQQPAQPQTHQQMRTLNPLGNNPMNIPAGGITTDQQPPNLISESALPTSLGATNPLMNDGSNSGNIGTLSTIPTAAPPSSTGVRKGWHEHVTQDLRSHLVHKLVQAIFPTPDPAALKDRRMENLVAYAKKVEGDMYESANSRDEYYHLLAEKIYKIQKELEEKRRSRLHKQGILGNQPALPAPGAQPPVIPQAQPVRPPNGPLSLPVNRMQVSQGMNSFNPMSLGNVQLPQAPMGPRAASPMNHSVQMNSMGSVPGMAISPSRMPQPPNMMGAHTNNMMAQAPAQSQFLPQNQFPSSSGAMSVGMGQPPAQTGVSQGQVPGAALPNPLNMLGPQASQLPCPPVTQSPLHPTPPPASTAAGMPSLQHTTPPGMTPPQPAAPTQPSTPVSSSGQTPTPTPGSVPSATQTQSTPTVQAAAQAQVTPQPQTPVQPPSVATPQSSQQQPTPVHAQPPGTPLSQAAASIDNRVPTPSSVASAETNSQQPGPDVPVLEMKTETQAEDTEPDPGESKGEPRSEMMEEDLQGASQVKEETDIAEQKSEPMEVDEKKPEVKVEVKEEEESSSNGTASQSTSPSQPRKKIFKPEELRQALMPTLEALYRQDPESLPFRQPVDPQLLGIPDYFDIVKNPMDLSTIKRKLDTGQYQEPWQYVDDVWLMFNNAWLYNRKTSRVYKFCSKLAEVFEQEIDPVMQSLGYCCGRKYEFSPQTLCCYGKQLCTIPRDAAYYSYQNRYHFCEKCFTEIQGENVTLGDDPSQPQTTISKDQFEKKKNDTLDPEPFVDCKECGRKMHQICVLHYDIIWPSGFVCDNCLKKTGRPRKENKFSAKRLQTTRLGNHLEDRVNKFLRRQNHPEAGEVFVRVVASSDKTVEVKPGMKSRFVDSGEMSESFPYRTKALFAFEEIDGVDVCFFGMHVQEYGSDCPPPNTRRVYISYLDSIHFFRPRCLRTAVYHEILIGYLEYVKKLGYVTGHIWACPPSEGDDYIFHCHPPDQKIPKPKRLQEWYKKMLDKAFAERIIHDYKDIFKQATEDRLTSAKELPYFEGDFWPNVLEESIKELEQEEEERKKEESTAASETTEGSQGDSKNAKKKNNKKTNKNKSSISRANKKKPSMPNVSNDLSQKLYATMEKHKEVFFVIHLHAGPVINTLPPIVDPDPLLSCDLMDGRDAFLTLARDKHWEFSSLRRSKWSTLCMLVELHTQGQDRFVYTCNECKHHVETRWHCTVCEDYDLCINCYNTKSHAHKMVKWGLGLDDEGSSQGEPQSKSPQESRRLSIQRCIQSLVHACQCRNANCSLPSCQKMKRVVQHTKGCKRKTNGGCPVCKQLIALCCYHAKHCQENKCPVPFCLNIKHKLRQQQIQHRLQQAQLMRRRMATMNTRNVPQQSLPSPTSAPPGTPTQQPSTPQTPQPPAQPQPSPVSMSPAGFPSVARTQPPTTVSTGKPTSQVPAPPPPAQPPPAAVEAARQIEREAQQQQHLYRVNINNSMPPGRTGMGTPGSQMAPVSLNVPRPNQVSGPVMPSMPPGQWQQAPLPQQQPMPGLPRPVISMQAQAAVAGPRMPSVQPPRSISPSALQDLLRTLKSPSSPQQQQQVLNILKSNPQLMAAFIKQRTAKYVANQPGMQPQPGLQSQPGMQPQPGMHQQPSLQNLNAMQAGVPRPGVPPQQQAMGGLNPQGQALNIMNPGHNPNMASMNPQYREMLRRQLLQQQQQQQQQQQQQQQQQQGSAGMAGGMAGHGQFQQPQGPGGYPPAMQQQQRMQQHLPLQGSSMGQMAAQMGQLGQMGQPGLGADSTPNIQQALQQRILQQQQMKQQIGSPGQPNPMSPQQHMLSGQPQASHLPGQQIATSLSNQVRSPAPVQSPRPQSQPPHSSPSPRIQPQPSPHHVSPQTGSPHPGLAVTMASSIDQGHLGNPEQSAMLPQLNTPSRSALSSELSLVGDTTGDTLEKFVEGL

| Compound | IC50 (22Rv1 cells; Homo sapiens, 22Rv1, 96 h) | Dmax (CBP) | DC50 (CBP) | IC50 (HL60; [1]) | IC50 (22Rv1 cells) | CBP Degradation (22Rv1, 5 h) DCmax (CBP) | IC50 (HL60; HL60 cells) |
| --- | --- | --- | --- | --- | --- | --- | --- |
| CC(=O)N1CCc2c(c(N3CCCc4cc(-c5cnn(C)c5)c(C(F)F)cc43)nn2C[C@H]2CC[C@H](C(=O)N3Cc4cc5c(cc4C3)C(=O)N(C3CCC(=O)NC3=O)C5=O)CC2)C1 (stereo partly drawn) [CP-029, trans-6-(4-((5-acetyl-3-(7-(difluoromethyl)-6-(1-methyl-1H-pyrazol-4-yl)-3,4-dihydroquinolin-1(2H)-yl)-4,5,6,7-tetrahydro-1H-pyrazolo[4,3-c]pyridin-1-yl)methyl)cylcohexane-1-carbonyl)-2-(2,6-dioxopiperidin-3-yl)-6,7-dihydropyrrolo[3,4-f]isoindole-1,3(2H,5H)-dione] | < 10000 nM | > 50% | < 100 nM | < 10000 nM |  |  |  |
| CC(=O)N1CCc2c(c(N3CCCc4cc(-c5cnn(C)c5)c(C(F)F)cc43)nn2C[C@H]2CC[C@H](C(=O)N3CCc4cc5c(cc4C3)C(=O)N(C3CCC(=O)NC3=O)C5=O)CC2)C1 (stereo partly drawn) [CP-030, trans-6-(4-((5-acetyl-3-(7-(difluoromethyl)-6-(1-methyl-1H-pyrazol-4-yl)-3,4-dihydroquinolin-1(2H)-yl)-4,5,6,7-tetrahydro-1H-pyrazolo[4,3-c]pyridin-1-yl)methyl)cyclohexane-1-carbonyl)-2-(2,6-dioxopiperidin-3-yl)-5,6,7,8-tetrahydro-1H-pyrrolo[3,4-g]isoquinoline-1,3(2H)-dione] | < 10000 nM | < 50% | > 1000 nM | < 1000 nM |  |  |  |
| CC(=O)N1CCc2c(c(N3CCCc4cc(-c5cnn(C)c5)c(C(F)F)cc43)nn2C[C@H]2CC[C@@H](C(=O)N3Cc4cc5c(cc4C3)C(=O)N(C3CCC(=O)NC3=O)C5=O)CC2)C1 (stereo partly drawn) [CP-031, cis-6-(4-((5-acetyl-3-(7-(difluoromethyl)-6-(1-methyl-1H-pyrazol-4-yl)-3,4-dihydroquinolin-1(2H)-yl)-4,5,6,7-tetrahydro-1H-pyrazolo[4,3-c]pyridin-1-yl)methyl)cyclohexane-1-carbonyl)-2-(2,6-dioxopiperidin-3-yl)-6,7-dihydropyrrolo[3,4-f]isoindole-1,3(2H,5H)-dione] | < 10000 nM | > 50% | < 100 nM | < 1000 nM |  |  |  |
| CC(=O)N1CCc2c(c(N3CCCc4cc(-c5cnn(C)c5)c(C(F)F)cc43)nn2C[C@H]2CC[C@@H](C(=O)N3CCc4cc5c(cc4C3)C(=O)N(C3CCC(=O)NC3=O)C5=O)CC2)C1 (stereo partly drawn) [CP-032, cis-6-(4-((5-acetyl-3-(7-(difluoromethyl)-6-(1-methyl-1H-pyrazol-4-yl)-3,4-dihydroquinolin-1(2H)-yl)-4,5,6,- tetrahydro-1H-pyrazolo[4,3-c]pyridin-1-yl)methyl)cyclohexane-1-carbonyl)-2-(2,6-dioxopiperidin-3-yl)-5,6,7,8-tetrahydro-1H-pyrrolo[3,4-g]isoquinoline-1,3(2H)-dione] | < 10000 nM | > 50% | < 100 nM | < 1000 nM |  |  |  |
| CC(=O)N1CCc2c(c(N3CCCc4cc(-c5cnn(C)c5)c(C(F)F)cc43)nn2C2CCC(C(=O)N3Cc4cc5c(cc4C3)C(=O)N(C3CCC(=O)NC3=O)C5=O)CC2)C1 (stereo not drawn) [CP-033, 6-(4-(5-acetyl-3-(7-(difluoromethyl)-6-(1-methyl-1H-pyrazol-4-yl)-3,4-dihydroquinolin-1(2H)-yl)-4,5,6,7-tetrahydro-1H-pyrazolo[4,3-c]pyridin-1-yl)cyclohexane-1-carbonyl)-2-(2,6-dioxopiperidin-3-yl)-6,7-dihydropyrrolo[3,4-f]isoindole-1,3(2H,5H)-dione] |  | > 90% | < 10 nM | < 100 nM | < 100 nM |  |  |
| CC(=O)N1CCc2c(c(N3CCCc4cc(-c5cnn(C)c5)c(C(F)F)cc43)nn2C2CCC(C(=O)N3Cc4cc5c(cc4C3)C(=O)N(C3CCC(=O)NC3=O)C5=O)CC2)C1 (stereo not drawn) [CP-034, 6-(4-(5-acetyl-3-(7-(difluoromethyl)-6-(1-methyl-1H-pyrazol-4-yl)-3,4-dihydroquinolin-1(2H)-yl)-4,5,6,7-tetrahydro-1H-pyrazolo[4,3-c]pyridin-1-yl)cyclohexane-1-carbonyl)-2-(2,6-dioxopiperidin-3-yl)-6,7-dihydropyrrolo[3,4-f]isoindole-1,3(2H,5H)-dione] |  |  | < 10 nM |  | < 1000 nM | +++ (>90% = +++) | < 100 nM |
| CC(=O)N1CCc2c(c(N3CCCc4cc(-c5cnn(C)c5)c(C(F)F)cc43)nn2C2CCC(C(=O)N3CCc4cc5c(cc4C3)C(=O)N(C3CCC(=O)NC3=O)C5=O)CC2)C1 (stereo not drawn) [CP-035, 6-(4-(5-acetyl-3-(7-(difluoromethyl)-6-(1-methyl-1H-pyrazol-4-yl)-3,4-dihydroquinolin-1(2H)-yl)-4,5,6,7-tetrahydro-1H-pyrazolo[4,3-c]pyridin-1-yl)cyclohexane-1-carbonyl)-2-(2,6-dioxopiperidin-3-yl)-5,6,7,8-tetrahydro-1H-pyrrolo[3,4-g]isoquinoline-1,3(2H)-dione] |  |  | < 100 nM |  | < 10000 nM | + (>50% =) | < 1000 nM |
| CC(=O)N1CCc2c(c(N3CCCc4cc(-c5cnn(C)c5)c(C(F)F)cc43)nn2C2CCC(C(=O)N3CCc4cc5c(cc4C3)C(=O)N(C3CCC(=O)NC3=O)C5=O)CC2)C1 (stereo not drawn) [CP-036, 6-(4-(5-acetyl-3-(7-(difluoromethyl)-6-(1-methyl-1H-pyrazol-4-yl)-3,4-dihydroquinolin-1(2H)-yl)-4,5,6,7-tetrahydro-1H-pyrazolo[4,3-c]pyridin-1-yl)cyclohexane-1-carbonyl)-2-(2,6-dioxopiperidin-3-yl)-5,6,7,8-tetrahydro-1H-pyrrolo[3,4-g]isoquinoline-1,3(2H)-dione] |  |  | < 10 nM |  | < 1000 nM | +++ (>90% = +++) | < 100 nM |

Other lines, results leading:

| IC50 (22Rv1 cells; Homo sapiens, 22Rv1, 96 h) | Dmax (CBP) | DC50 (CBP) | IC50 (HL60; [1]) | IC50 (22Rv1 cells) | CBP Degradation (22Rv1, 5 h) DCmax (CBP) | IC50 (HL60; HL60 cells) | Compound |
| --- | --- | --- | --- | --- | --- | --- | --- |
| < 1000 nM | > 70% | < 10 nM | < 1000 nM |  |  |  | CCC(=O)N1CCc2c(c(N3CCCc4cc(-c5cnn(C)c5)c(C(F)F)cc43)nn2C2CCN(C(=O)CN3Cc4cc5c(cc4C3)C(=O)N(C3CCC(=O)NC3=O)C5=O)CC2)C1 (stereo not drawn) [CP-055, 6-(2-(4-(3-(7-(difluoromethyl)-6-(1-methyl-1H-pyrazol-4-yl)-3,4-dihydroquinolin-1(2H)-yl)-5-propionyl-4,5,6,7-tetrahydro-1H-pyrazolo[4,3-c]pyridin-1-yl)piperidin-1-yl)-2-oxoethyl)-2-(2,6-dioxopiperidin-3-yl)-6,7-dihydropyrrolo[3,4-f]isoindole-1,3(2H,5H)-dione] |
| < 100 nM | > 90% | < 10 nM | < 100 nM |  |  |  | CC(=O)N1CCc2c(c(N3CCCc4cc(-c5cnn(CCCCCN6Cc7cc8c(cc7C6)C(=O)N(C6CCC(=O)NC6=O)C8=O)c5)c(C(F)F)cc43)nn2C2CCOCC2)C1 (stereo not drawn) [CP-067, 6-(5-(4-(1-(5-acetyl-1-(tetrahydro-2H-pyran-4-yl)-4,5,6,7-tetrahydro-1H-pyrazolo[4,3-c]pyridin-3-yl)-7-(difluoromethyl)-1,2,3,4-tetrahydroquinolin-6-yl)-1H-pyrazol-1-yl)pentyl)-2-(2,6-dioxopiperidin-3-yl)-6,7-dihydropyrrolo[3,4-f]isoindole-1,3(2H,5H)-dione] |
| < 100 nM | > 90% | < 10 nM | < 100 nM |  |  |  | CC(=O)N1CCc2c(c(N3CCCc4cc(-c5cnn(CCCCN6Cc7cc8c(cc7C6)C(=O)N(C6CCC(=O)NC6=O)C8=O)c5)c(C(F)F)cc43)nn2C2CCOCC2)C1 (stereo not drawn) [CP-068, 6-(4-(4-(1-(5-acetyl-1-(tetrahydro-2H-pyran-4-yl)-4,5,6,7-tetrahydro-1H-pyrazolo[4,3-c]pyridin-3-yl)-7-(difluoromethyl)-1,2,3,4-tetrahydroquinolin-6-yl)-1H-pyrazol-1-yl)butyl)-2-(2,6-dioxopiperidin-3-yl)-6,7-dihydropyrrolo[3,4-f]isoindole-1,3(2H,5H)-dione] |
| < 1000 nM | > 70% | < 10 nM | < 100 nM |  |  |  | CC(=O)N1CCc2c(c(N3CCCc4cc(-c5cnn(CCCCCN6CCc7cc8c(cc7C6)C(=O)N(C6CCC(=O)NC6=O)C8=O)c5)c(C(F)F)cc43)nn2C2CCOCC2)C1 (stereo not drawn) [CP-069, 6-(5-(4-(1-(5-acetyl-1-(tetrahydro-2H-pyran-4-yl)-4,5,6,7-tetrahydro-1H-pyrazolo[4,3-c]pyridin-3-yl)-7-(difluoromethyl)-1,2,3,4-tetrahydroquinolin-6-yl)-1H-pyrazol-1-yl)pentyl)-2-(2,6-dioxopiperidin-3-yl)-5,6,7,8-tetrahydro-1H-pyrrolo[3,4-g]isoquinoline-1,3(2H)-dione] |
